From a melting point compilation (Tetko et al.; mined from patent text by program, amines drawn as free bases though some values may be those of a salt)

| SMILES | melting point |
| --- | --- |
| COc1ccc(Cc2cc(Oc3c(C)cc(C=C4N=C(C)OC4=O)cc3C)ccc2OC)cn1 | 164 to 165 °C |
| CCCCCCCCCCc1c(C(=O)O)sc2c1sc1c(CCCCCCCCCC)c(C(=O)O)sc12 | 280 °C |
| CC1=CC(COC(c2ccccc2)(c2ccccc2)c2ccccc2)O[C@@H]1c1coc(C#N)c1N (stereo partly drawn) | 68 °C |
| CC(C)Oc1n[nH]c(=O)n1C1CC1 | 146 to 147 °C |
| CN(c1cccc2cc(-c3ncc(COCC(=O)O)s3)[nH]c12)S(=O)(=O)c1cccs1 | 197 to 198 °C |
| CC(C)c1ccc(N(Cc2ccc(N(C)C)cc2)C(=O)C2CCc3c(O)cccc32)cc1 (stereo not drawn) | 158 to 160 °C |
| O=[N+]([O-])c1ccc(-c2ccc([N+](=O)[O-])c(Cl)c2)cc1Cl | 221 to 222 °C |
| CC(C)N(CCOc1ccc(-c2nnc(CSCCOc3ccccc3)o2)cc1)C(C)C | 42 to 45 °C |
| c1csc(-c2nc3cc(COc4ccc(CCCn5ccnc5)cc4)ccc3o2)c1 | 130 to 131 °C |
| COc1cccc(C(=O)N2C(=O)CN(c3ccccc3)C2=O)c1 | 161 to 162 °C |
| CC(=O)OCc1ccc2oc(=O)c(C(=O)Oc3ccccc3I)cc2c1 | 156 to 158 °C |
| Clc1ccc2ccc(COc3ccc4c(c3)C(SCCc3nnn[nH]3)c3ccccc3CO4)nc2c1 (stereo not drawn) | 142 to 147 °C |
| ON=C1C2CCC1CN(Cc1ccccc1)C2 | 92 to 95 °C |
| CN(C)/N=C(/C(=O)O)c1ccc(OCCOc2ccc3ccccc3c2)cc1 | 135 °C |
| Cc1nc2c(cc1C(=O)NC(=N)N)C(O)CCCC2 (stereo not drawn) | 225 to 226 °C |
| COc1cccc(C(NC(=O)Cc2c(Cl)cncc2Cl)C2CCCC2)c1 (stereo not drawn) | 105 to 106 °C |
| CC(C)OC(=O)Nc1cccc(O)c1 | 75 to 77 °C |
| Fc1ccc(-c2[nH]cc(C3=CC4CCCCN4CC3)c2-c2ccncc2)cc1 (stereo not drawn) | 223 to 224 °C |
| O=c1oc2c(c(O)c1C1(c3ccccc3)CCC1)CCCCCC2 | 240 to 241 °C |
| O=[N+]([O-])c1ccc(NCCCn2ccnc2)cc1 | 130 to 132 °C |
| CCn1c(=O)c2[nH]c(/C=C/c3cccc(OC)c3OC)nc2n(CC)c1=O | 288 to 289 °C |
| Cc1cc(Cc2cnc(Cl)nc2Cl)c2cccnc2c1N | 209 to 211 °C |
| CC1CCN(Cc2cccc(OCCCNS(=O)(=O)CCNc3ccc(Cl)c(Cl)c3)c2)CC1 | 130 to 135 °C |
| N#Cc1cnc2c(oc3ccccc32)c1O | > 310 °C |
| CCN1CC2CCCC2C1CNC(=O)c1cc(Cl)c(NC(C)=O)cc1OC (stereo not drawn) | 156 to 157 °C |

| SMILES | melting point |
| --- | --- |
| CN(C)C(=O)C#C[C@H]1CC[C@H](N(C)C(=O)OC(C)(C)C)CC1 | 115 to 117 °C |
| COC(=O)c1ccc2[nH]nnc2c1C(=O)OC | 147 to 150 °C |
| OC1C(COC2CC2)OC(n2cnc3c(NC4CCCC4)nc(Cl)nc32)C1O (stereo not drawn) | 104 to 106 °C |
| CC(C)Oc1ccccc1-c1cc(=O)c2cc(C(=O)O)ccc2o1 | 133 to 135 °C |
| NC(=O)c1nnn(Cc2cccc(Cl)c2Cl)c1N | 224 to 226 °C |
| Cc1ccc(COc2cccnc2NC(=N)Nc2ccc(Cl)cc2)cc1 | 174 to 175 °C |
| C=NC(c1cccc(Nc2n[nH]c3ncnc(Nc4cccc(Cl)c4)c23)c1)N(C)C (stereo not drawn) | 175 to 177 °C |
| COc1ccc(-c2sc3cc(OC)ccc3c2Br)cc1 | 83 °C |
| COc1ccc(-c2cc(=O)n(Cc3ccc(Cl)cc3Cl)nc2-c2ccc(OC)cc2)cc1 | 141 °C |
| COc1cc(F)nc(NC(=O)NS(=O)(=O)c2ccccc2OS(C)(=O)=O)n1 | 168 to 169 °C |
| O=S1(=O)c2cccc3cccc(c23)N1CCCCN1CC=C(c2c[nH]c3ccccc23)CC1 | 203 °C |
| O=C(NCc1ccccn1)Nc1nc(C(=O)O)cs1 | 220 °C |
| c1ccc(COc2ccc3c(C45CC6CC(CC(C6)C4)C5)noc3c2)cc1 | 132 °C |
| CCCCNc1nc2cnnc(OCC)c2cc1C(=O)OCC | 98 to 99 °C |
| N#Cc1cccc2c(C3CCCCC3)nccc12 | 94.7 °C |
| O=C(O)CCCCCCCc1ccc(CCNC(=O)c2ccc(Cl)cc2)cc1 | 145 to 148 °C |
| CCc1c(OC)nc(OC)nc1C(=O)c1cc(Cl)cc(Cl)c1 | 118 to 119 °C |
| COc1c(Cl)ccc(-c2nc(C(=O)OC(C)C)c(I)c(N)c2F)c1F | 134 to 135 °C |
| Cc1c(Cc2ccccc2)c(=O)oc2cc(OCc3nnn[nH]3)cc(OCc3nnn[nH]3)c12 | 229 to 233 °C |
| CC1(C)CCC(C)(C)c2cc(C(=O)SCc3ccc(C(=O)O)cc3)ccc21 | 150 to 151 °C |
| O=C(N[C@H](CC1CCCCC1)CN1CCN(c2nccc3ccccc23)CC1)C1CCCCC1 | 155 to 159 °C |
| C=Cc1ccc(C2=CC(=O)NC2=O)cc1 | 124 to 127 °C |
| CCN(CC)c1ccc(/C=C/c2cc(/C=C/c3ccc4cc[nH]c4c3)[nH]n2)c(OCc2ccccc2)c1 | 78.1 to 80 °C |
| COc1cc(C=C2C(=O)NC(=O)N2C)cc(OC)c1O | 194 to 196 °C |
| COc1ccccc1N1CCN(CCN2C(=O)c3ccccc3C2=O)CC1 | 76 to 81 °C |

| SMILES | melting point |
| --- | --- |
| O=C(OCCOCCO)c1ccc(O)c(Cl)c1 | 77.5 to 78 °C |
| CC(C)(C)OC(=O)N[C@@H](CO)C(=O)N[C@@H](CCC(=O)OCc1ccccc1)C(=O)OCc1ccccc1 | 93 to 95 °C |
| Cn1nc(-c2c(Cl)cncc2Cl)nc1Cc1ccc(Cl)cc1 | 142 to 143 °C |
| N#Cc1cc(F)cc(-c2ccc3c(c2)C(C2CC2)(C2CC2)OC(=O)N3)c1 | 250 to 252 °C |
| O=C(Cc1ccc(Cl)cc1)C1(c2ccc(Cl)c(Cl)c2)CCC1 | 82 to 84 °C |
| NC(=O)c1cnn(-c2ccc(Cl)cc2Cl)c1C(F)(F)F | 191 to 193 °C |
| COC(=O)c1cc(C)c(NC(=O)c2cc(C(F)(F)F)nn2-c2ncccc2Cl)c(C(=O)NC(C)C)c1 | 199 to 200 °C |
| COc1ccc(-c2sc(C=NO)c(-c3cccc(OC)c3)c2C)cc1 | 122 to 141 °C |
| COc1ccc(-c2cc(=O)c3c(OC)cc(OC)cc3o2)cc1 | 156 °C |
| N#CC(c1ccccc1)(c1ccccc1)[C@H]1CCCN(CCc2ccc(CO)cc2)C1 | 110 to 114 °C |
| CNc1nc(CCN2CCC(Nc3nc4ccccc4n3Cc3ccc(F)cc3)CC2)c(C)s1 | 182 °C |
| O=C1c2cccc3c4c(cc(c23)C(=O)N1O)OCCO4 | 344 to 347 °C |
| CCCCCC1(O)CCC2(C)C(CCC3C4CCC(C5(C)OCCO5)C4(C)CC(=O)C32)C1 (stereo not drawn) | 106 °C |
| Cc1ccccc1S(=O)(=O)NC(=O)c1ccc2c(ccn2Cc2cccc(NC(=O)OC3CCCC3)c2)c1 | 188 to 190 °C |
| Cc1cc(C)cc(NC(=O)NC2CC2)c1 | 169 °C |
| CC(C)(C)c1cc(C(=O)c2ccc[nH]2)cc(C(C)(C)C)c1O | 146 °C |
| NS(=O)(=O)c1ccc(-c2noc(-c3cnn4c(C(F)F)cc(-c5ccc(C(F)(F)F)cc5)nc34)n2)cc1 | 283 °C |
| COC(=O)Cc1nc(-c2ccc(OC)cc2)c(-c2ccc(OC)cc2)s1 | 79 to 81.5 °C |
| CCCCCCCCCCCC1=NCCN1CCO | 40 to 42 °C |
| CC(=O)OCC1CC(=O)NN=C1c1ccc2c(c1)CCC(=O)N2C (stereo not drawn) | 149 to 153 °C |
| CCOC(=O)N(c1ccccc1[N+](=O)[O-])c1cccc(C)c1C | 71 to 73 °C |
| Cc1c(C=O)c2c(c(C)c1NC(=O)CC(C)(C)C)CC(C)(C)O2 | 180 to 181 °C |
| COc1ccccc1N1CCN(CCCC2(c3ccc(F)cc3)OCc3cc(C#N)ccc32)CC1 (stereo not drawn) | 147 to 149 °C |
| Cc1cccc(N2CCN(c3ccc(S(C)(=O)=O)nn3)CC2)c1 | 201 °C |
| COc1cc2c(cc1OC)C(=O)C(=Cc1cccc([N+](=O)[O-])c1)CC2 | 186 to 187 °C |

| SMILES | melting point |
| --- | --- |
| O=C(O)Cc1ccc(Oc2ccc(Cl)cc2)cc1 | 98 to 100 °C |
| CC1(C(O)=C(Cc2ccc(Cl)cc2Cl)n2cncn2)COCOC1 | 190 to 192 °C |
| CN(C)C1CCn2c1nc1cc(NC(=O)c3cc4cc(C(F)(F)F)ccc4n3Cc3cccc(F)c3)cnc12 (single isomer, unassigned; (-)) | 203 to 205 °C |
| COc1nc(C(Br)Br)c([N+](=O)[O-])cc1C | 58.7 to 61.2 °C |
| CCCCCCCCCCCCCCCc1c([N+](=O)[O-])cc([N+](=O)[O-])c(O)c1[N+](=O)[O-] | 53 to 56 °C |
| CCCCCCCCCCOc1ccc(-c2ccc(CCC(C)O)cc2)cc1 (single isomer, unassigned; (+)) | 87 to 89 °C |
| COc1cc(C=C2SC(=S)N(c3ccc(O)cc3)C2=O)ccc1OC1OC(CO)C(O)C(O)C1NC(C)=O (stereo not drawn) | 234 to 236 °C |
| NP(N)(=O)NCCCBr | 60 to 65 °C |
| COc1cc(Nc2nccc(-c3sc(-c4cccnc4)nc3C)n2)cc(OC)c1OC | 210 to 211 °C |
| CC(C)C[C@H](N)C(=O)N[C@@H](CC1CCCCC1)[C@@H](O)c1nccs1 | 140 to 141 °C |
| N#CC(=Cc1ccc2[nH]ccc2c1)S(=O)(=O)c1ccc(OC(F)(F)F)cc1 | 171 to 175 °C |
| O=C(CCCN1CCN(c2ccc(CO)c(Cl)c2)CC1)c1cccs1 | 131 to 133 °C |
| C[Si](C)(C)C#Cc1c(C(F)(F)F)nn(-c2c(Cl)cc(C(F)(F)F)cc2Cl)c1N | 120 to 123 °C |
| CCOc1nc2ccccc2nc1NC(=O)N1CCN(c2cc(F)cc(F)c2)CC1 | 146 to 148 °C |
| CCc1nc(-c2cccc(C(=O)O)c2)c(-c2ccnc(N)c2)s1 | 273 to 274 °C |
| Cc1nnnn1-c1ccc(/C(=C\C2CCCC2)C(=O)O)cc1Cl | 216 to 219 °C |
| CC(=O)Nc1c(C)c2c(c(C)c1[N+](=O)[O-])OC(C)(C)C2 | 203 to 204 °C |
| CC(C)(C)c1cc(C(=O)OCc2ccccc2)cc(C(C)(C)C)c1O | 80 to 83 °C |
| O=c1nc(CN2CCC[C@H](OCc3cc(Cl)cc(Cl)c3)[C@@H]2c2ccccc2)[nH][nH]1 | > 220 °C |
| Cc1ccc2nc(CCl)n3cnnc3c2c1 | 175 °C |
| COc1cc2cccc3c2c(n1)-c1ccccc1C3=O | 190 to 192 °C |
| CCCCC(O)CNCCCCCCCCCCNCC(O)CCCC (stereo not drawn) | 127 to 137 °C |
| CCOc1cccc(CN2CCc3cc(O)c(OC)cc3C2)c1 | 105 to 106 °C |
